Data: US20080045535A1, “Prokineticin 2 receptor antagonists” (priority 2005, published 2008)
Where “and” joins values, the source holds several entries; their conditions need not be identical. Equal values may be shown once.

Molecular target: T1, HEK 293 GPR73 (prokineticin 1 receptor) expressing cells (Homo sapiens, UniProt Q8TCW9)
T1 construct: expressed in transfected cells; host or cells: HEK 293
Experiment: PK1 functional assay: screening for PK1 antagonists on the FLIPR (calcium fluorescence)
Assay type: cell-based
Conditions: HEK 293 GPR73 cells; for inhibition at 10 µM: HEK293, compound at 10 μM, read-out: Ca^2+ Mobilization % Inh @10 μM; for inhibition at 10 µM / Ca^2+ Mobilization % Inh @10 μM: multiple values = repeat tests; for IC50: PK1 ligand at EC50, multiple values = repeat tests, read-out: Ca^2+ Mobilization IC50; for Ca^2+ Mobilization % Inh @10 μM: compound at 10 μM
Procedure: At a time of 24 h prior to running the assay, in cell culture media (DMEM containing high Glucose and L-glutamine, 10% FBS, 1% Pen/Streptomycin, 1% Sodium Pyruvate, 20 mM HEPES, Zeocin 200 mg/L), 100 μL of 1.3*10^6/ml HEK 293 GPR73 (prokineticin 1 receptor) expressing cells were plated in a 96 well poly-d-lysine coated plate (Costar), and incubated at 37 C and 5% CO2. On the day in which the assay was run, the media was removed and 200 μL of 5× Calcium Plus Dye (Molecular Devices) which was previously resuspended with 200 mL of assay buffer [HBSS w/Ca^2+ and Mg^2+ w/o phenol red, 20 mM HEPES, 0.1% BSA, 10 mL probenecid (710 mg probenecid in 5 mL of 1N NaOH, to which was then added 5 mL HBSS containing 20 mM HEPES)] was added to each well of the 96-well plate. The plate was incubated at 37 C and 5% CO2 for 30 min in dark. The plate was removed and allowed to reach RT for 15 min in the dark. The assay was then run on the FLIPR. […] Baseline is described as the amount of relative fluorescence read when buffer alone is added to cells. Baseline was subtracted from all wells. Percent of control was calculated as follows:
(Baseline subtracted well value is divided by baseline subtracted max value)*100.
Percent inhibition is 100 minus the percent of control value.
IC50 values were calculated using GraphPad Prism.
Table 2 includes data generated from the PK1 functional assay described in Example 2.

T1 sequence (Q8TCW9 whole entry): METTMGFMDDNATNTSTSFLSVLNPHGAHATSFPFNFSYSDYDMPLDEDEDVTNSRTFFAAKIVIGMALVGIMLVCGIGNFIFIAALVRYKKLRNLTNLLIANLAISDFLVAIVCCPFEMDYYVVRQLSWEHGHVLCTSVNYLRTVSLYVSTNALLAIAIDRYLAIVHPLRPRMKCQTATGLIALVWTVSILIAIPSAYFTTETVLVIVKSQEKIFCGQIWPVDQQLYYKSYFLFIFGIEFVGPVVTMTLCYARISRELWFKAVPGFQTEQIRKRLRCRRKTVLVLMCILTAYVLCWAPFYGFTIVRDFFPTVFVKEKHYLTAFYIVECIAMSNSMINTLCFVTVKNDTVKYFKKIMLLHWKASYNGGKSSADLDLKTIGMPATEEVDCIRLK

Row | Structure (SMILES) | inhibition at 10 µM | IC50 | Ca^2+ Mobilization % Inh @10 μM (10 µM) | Ca^2+ Mobilization % Inh @10 μM
1 | COc1ccc(Cn2c(NCCNC(=N)N)nc(=O)n(Cc3ccccc3)c2=O)cc1 [Cpd 2] | 92% | 125 nM and 363 nM and 336 nM and 927 nM | 85% and 74% and 87% | 
2 | N=C(N)NCCNc1nc(=O)n(Cc2ccccc2)c(=O)n1Cc1cccc(C(F)(F)F)c1 [Cpd 7] | 52% | > 10000 nM |  | 
3 | N=C(N)NCCNc1nc(=O)n(Cc2ccccc2)c(=O)n1Cc1ccc([N+](=O)[O-])cc1 [Cpd 9] |  | > 10000 nM |  | 35%
4 | COc1ccc(Cn2c(NCCONC(=N)N)nc(=O)n(Cc3ccccc3)c2=O)cc1 [Cpd 10] |  | > 10000 nM |  | 33%
5 | N=C(N)NCCNc1nc(=O)n(Cc2ccccc2)c(=O)n1Cc1ccncc1 [Cpd 11] | 32% | > 10000 nM |  | 
6 | CCOc1ccc(Cn2c(NCCNC(=N)N)nc(=O)n(Cc3ccccc3)c2=O)cc1 [Cpd 12] | 97% | 34 nM and 82 nM and 247 nM | 96% and 94% and 90% | 
7 | N=C(N)NCCNc1nc(=O)n(Cc2ccccc2)c(=O)n1Cc1ccc(OC(F)F)cc1 [Cpd 13] | 92% | 104 nM and 256 nM | 91% | 
8 | COc1ccc(Cn2c(NCCNC(=N)N)nc(=O)n(Cc3ccc(F)cc3)c2=O)cc1 [Cpd 17, N-{2-[5-(4-Fluoro-benzyl)-1-(4-methoxy-benzyl)-4,6-dioxo-1,4,5,6-tetrahydro-[1,3,5]triazin-2-ylamino]-ethyl}-guanidine] | 100% | 14 nM and 33 nM and 87 nM | 99% and 97% | 
9 | COc1ccc(Cn2c(NCCNC(=N)N)nc(=O)n(Cc3ccc(Cl)c(Cl)c3)c2=O)cc1 [Cpd 18] | 98% | 7 nM and 28 nM and 41 nM and 22 nM and 54 nM | 100% and 101% and 99% | 
10 | COc1ccc(Cn2c(NCCNC(=N)N)nc(=O)n(Cc3ccccc3OC)c2=O)cc1 [Cpd 21] | 43% | > 10000 nM |  | 
11 | CCOc1ccc(Cn2c(NCCNC(=N)N)nc(=O)n(Cc3ccc(Cl)c(Cl)c3)c2=O)cc1 [Cpd 29] | 101% | 42 nM and 47 nM | 102% | 
12 | COc1ccc(Cn2c(NCCNC(=N)N)nc(=O)n(Cc3ccc(Cl)cc3)c2=O)cc1 [Cpd 30] | 101% | 9 nM and 19 nM | 103% | 
13 | COc1ccc(Cn2c(NCCNC(=N)N)nc(=O)n(Cc3ccc(OC)cc3)c2=O)cc1 [Cpd 31] | 101% | 9 nM and 21 nM | 102% | 
14 | COc1ccc(Cn2c(NCCCCNC(=N)N)nc(=O)n(Cc3ccc(Cl)c(Cl)c3)c2=O)cc1 [Cpd 32] | 88% | 601 nM and 781 nM | 86% | 
15 | CSc1ccc(Cn2c(NCCNC(=N)N)nc(=O)n(Cc3ccc(Cl)c(Cl)c3)c2=O)cc1 [Cpd 37] | 98% | 38 nM and 201 nM and 326 nM | 100% and 98% and 99% | 
16 | CCc1ccc(Cn2c(NCCNC(=N)N)nc(=O)n(Cc3ccc(Cl)c(Cl)c3)c2=O)cc1 [Cpd 38] | 98% | 55 nM and 178 nM and 194 nM | 94% and 98% | 
17 | N=C(N)NCCNc1nc(=O)n(Cc2ccc(Cl)c(Cl)c2)c(=O)n1Cc1ccc(OC(F)F)cc1 [Cpd 41] | 101% | 27 nM and 47 nM and 64 nM | 100% and 99% | 
18 | COc1ccc(Cn2c(N[C@H]3CCCC[C@@H]3NC(=N)N)nc(=O)n(Cc3ccc(Cl)c(Cl)c3)c2=O)cc1 [Cpd 43] | 31% | > 10000 nM |  | 
19 | CCCNC(=N)NCCNc1nc(=O)n(Cc2ccc(Cl)c(Cl)c2)c(=O)n1Cc1ccc(OC)cc1 [Cpd 54] | 98% | 14 nM and 6 nM | 101% | 

Second part, the compound after the results:

Row | inhibition at 10 µM | IC50 | Ca^2+ Mobilization % Inh @10 μM (10 µM) | Ca^2+ Mobilization % Inh @10 μM | Structure (SMILES)
20 | 92% | 281 nM |  |  | COc1ccc(Cn2c(N[C@@H]3CCCC[C@@H]3NC(=N)N)nc(=O)n(Cc3ccc(Cl)c(Cl)c3)c2=O)cc1 (racemic) [Cpd 42]
21 | 30% | > 10000 nM |  |  | NC(N)=NCCNc1nc(=O)n(Cc2ccccc2)c(=O)n1Cc1ccc(F)cc1 [Cpd 1]
22 |  | 4960 nM |  | 52% | COC(=O)c1ccc(Cn2c(NCCNC(=N)N)nc(=O)n(Cc3ccccc3)c2=O)cc1 [Cpd 3]
23 | 71% | 2500 nM |  |  | COc1ccc(Cn2c(NCCNC(=N)N)nc(=O)n(CCc3ccccc3)c2=O)cc1 [Cpd 4]
24 | 67% | 2180 nM |  |  | CCCCn1c(=O)nc(NCCNC(=N)N)n(Cc2ccc(OC)cc2)c1=O [Cpd 5]
25 | 59% | 2590 nM |  |  | COc1ccc(Cn2c(NCCNC(=N)N)nc(=O)n(Cc3ccco3)c2=O)cc1 [Cpd 6]
26 | 64% | 3850 nM |  |  | CC(C)(C)c1ccc(Cn2c(NCCNC(=N)N)nc(=O)n(Cc3ccccc3)c2=O)cc1 [Cpd 8]
27 | 55% | 6110 nM |  |  | N=C(N)NCCNc1nc(=O)n(Cc2ccccc2)c(=O)n1Cc1ccc(C(F)(F)F)cc1 [Cpd 15]
28 | 77% | 836 nM |  |  | COc1ccc(Cn2c(NCCNC(=N)N)nc(=O)n(Cc3ccccc3F)c2=O)cc1 [Cpd 16]
29 | 81% | 862 nM |  |  | N=C(N)NCCNc1nc(=O)n(Cc2ccccc2)c(=O)n1Cc1ccc(OC(F)(F)F)cc1 [Cpd 19]
30 | 61% | 3690 nM |  |  | COc1ccc(Cn2c(NCCNC(=N)N)nc(=O)n(Cc3cccc(OC)c3)c2=O)cc1 [Cpd 20]
31 | 80% | 947 nM |  |  | N=C(N)NCCNc1nc(=O)n(Cc2ccccc2)c(=O)n1Cc1ccc(C(N)=O)cc1 [Cpd 22]
32 | 74% | 1250 nM |  |  | CC(=O)Nc1ccc(Cn2c(NCCNC(=N)N)nc(=O)n(Cc3ccccc3)c2=O)cc1 [Cpd 23]
33 | 99% | 41 nM |  |  | CCOc1ccc(Cn2c(NCCNC(=N)N)nc(=O)n(Cc3ccc(F)cc3)c2=O)cc1 [Cpd 24]
34 | 101% | 710 nM |  |  | COc1ccc(Cn2c(NCCNC(=N)NC#N)nc(=O)n(Cc3ccc(Cl)c(Cl)c3)c2=O)cc1 [Cpd 28, N-{2-[5-(3,4-Dichloro-benzyl)-1-(4-methoxy-benzyl)-4,6-dioxo-1,4,5,6-tetrahydro-[1,3,5]triazin-2-ylamino]-ethyl}-N′-cyano-guanidine]
35 | 66% | 2860 nM |  |  | COc1ccc(CCn2c(NCCNC(=N)N)nc(=O)n(Cc3ccc(F)cc3)c2=O)cc1 [Cpd 33]
36 | 77% | 1320 nM |  |  | N=C(N)NCCNc1nc(=O)n(Cc2ccc(Cl)c(Cl)c2)c(=O)n1Cc1ccc(OC2CCCC2)cc1 [Cpd 36]
37 | 81% | 909 nM |  |  | COc1ccc(Cn2c(NCCNC(=N)N)nc(=O)n(Cc3cccc(Cl)c3)c2=O)cc1 [Cpd 39]
38 | 98% | 248 nM |  |  | N=C(N)NCCNc1nc(=O)n(Cc2ccc(Cl)c(Cl)c2)c(=O)n1Cc1ccc(OC(F)(F)F)cc1 [Cpd 40]
39 | 103% | 18 nM |  |  | COc1ccc(Cn2c(NCCNC(=N)N)nc(=O)n(Cc3ccc(SC)cc3)c2=O)cc1 [Cpd 45]
40 | 101% | 58 nM |  |  | CCc1ccc(Cn2c(=O)nc(NCCNC(=N)N)n(Cc3ccc(OC)cc3)c2=O)cc1 [Cpd 46, N-{2-[5-(4-Ethyl-benzyl)-1-(4-methoxy-benzyl)-4,6-dioxo-1,4,5,6-tetrahydro-[1,3,5]triazin-2-ylamino]-ethyl}-guanidine]
41 | 94% | 798 nM |  |  | COc1ccc(Cn2c(NCCNC3=NCC(=O)N3)nc(=O)n(Cc3ccc(Cl)c(Cl)c3)c2=O)cc1 [Cpd 48, 3-(3,4-Dichloro-benzyl)-1-(4-methoxy-benzyl)-6-[2-(5-oxo-4,5-dihydro-1H-imidazol-2-ylamino)-ethylamino]-1H-[1,3,5]triazine-2,4-dione]
42 | 75% | 2000 nM |  |  | COc1ccc(Cn2c(NCCNC3=NCCN3)nc(=O)n(Cc3ccc(Cl)c(Cl)c3)c2=O)cc1 [Cpd 49, 3-(3,4-Dichloro-benzyl)-6-[2-(4,5-dihydro-1H-imidazol-2-ylamino)-ethylamino]-1-(4-methoxy-benzyl)-1H-[1,3,5]triazine-2,4-dione]
43 | 96% | 248 nM |  |  | CC(=O)Nc1ccc(Cn2c(NCCNC(=N)N)nc(=O)n(Cc3ccc(Cl)c(Cl)c3)c2=O)cc1 [Cpd 50]
44 | 100% | 47 nM |  |  | N=C(N)NCCNc1nc(=O)n(Cc2ccc(Cl)c(Cl)c2)c(=O)n1Cc1ccc(C(N)=O)cc1 [Cpd 51, 4-[3-(3,4-Dichlorobenzyl)-6-(2-guanidinoethylamino)-2,4-dioxo-3,4-dihydro-2H-[1,3,5]triazin-1-yl-methyl]-benzamide]
45 | 58% | 6520 nM |  |  | CCOc1cccc(Cn2c(NCCNC(=N)N)nc(=O)n(Cc3ccc(Cl)c(Cl)c3)c2=O)c1 [Cpd 52]
46 | 58% | 6730 nM |  |  | COc1ccc(Cn2c(N3CCC(NC(=N)N)C3)nc(=O)n(Cc3ccc(Cl)c(Cl)c3)c2=O)cc1 (stereo not drawn) [Cpd 55]
